Entries after “also recorded” stand apart in the source; their conditions may differ.
Key:
Assay type in all cases: biochemical
[1] = biological target: cytochrome c/cardiolipin complex (Equus caballus, UniProt P00004); assay: Soret circular dichroism of cytochrome c with cardiolipin; conditions: 10 μM cytochrome c; for protection against CL-induced disappearance of negative Cotton effect: 30 μg/ml CL, 10 μM peptide, 20 mM HEPES pH 7.5, 25° C.; for loss of the negative Cotton peak at 419 nm caused by cardiolipin: 30 μg/ml cardiolipin, peptide 1:1 with cytochrome c, pH 7.4
Procedure: Circular dichroism (CD) was carried out to examine the effects of the peptides on protecting the heme environment of cytochrome c from the acyl chain of CL. For heme proteins, the Soret CD spectrum is strictly correlated with the heme pocket conformation. In particular, the negative 416-420 nm Cotton effect is considered diagnostic of Fe(III)-Met80 coordination in native cytochrome c (Santucci and Ascoli, 1997). […] CD spectra were obtained using AVIV CD Spectrometer Model 410.
Changes in the Soret CD spectrum of cytochrome c (10 μM) were recorded in the absence (dotted line) and presence (dashed line) of 30 μg/ml CL, plus addition of different peptides (10 μM) (solid line) (FIG. 14). CD measurements were carried out using 20 mM HEPES, pH 7.5, at 25° C. and expressed as molar ellipticity (A) (m Deg). […] Accordingly, aromatic-cationic peptides of the present disclosure are useful for the prevention or treatment of diseases or disorders characterized by dysregulation of cardiolipin and/or cytochrome c, and/or diseases or disorders characterized by dysregulation of the cardiolipin/cytochrome c interaction. In addition, aromatic-cationic peptides of the present disclosure are useful to protect the heme environment of cytochrome c from the acyl chain of cardiolipin.
Circular Dichroism (CD) spectra were collected with an AVIA 62 DS spectrophotometer equipped with a sample temperature controller. CD spectra of the Soret region (370-450 nm) were recorded with 10-mm path length cells containing 20 mM Hepes, pH 7.4, and 10 μM cytochrome c, in the presence or absence of 30 μg/ml cardiolipin and different SS peptide analogs (SS-02, [atn]SS-02, [ald]SS-02, and SS-31). The maximum lipid concentration was kept low to avoid spectral distortions due to excessive light scattering. All measurements were done at 25° C. All spectra were corrected for background, and the final spectrum shown represents the average of at least three experiments.

[2] = biological target: cardiolipin-cytochrome c complex (Equus caballus, UniProt P00004); assay: Cytochrome c reduction in the presence of cardiolipin; conditions: for rate of cytochrome c reduction in the presence of cardiolipin: 40 μM peptide, 100 μg/ml cardiolipin, 50 μM ascorbate, 10% with cardiolipin alone
Procedure: Reduction of cytochrome c (20 μM) was induced by the addition of glutathione (500 μM) in the absence or presence of CL (100 μg/ml) (FIG. 15A). Reduction of cytochrome c was monitored by absorbance at 550 nm using a 96-well UV-VIS plate reader (Molecular Devices). Addition of CL decreased the rate of cytochrome c reduction by half.
The time course of cytochrome c reduction by ascorbate was recorded at 550 nm and 570 nm using a 96-well plate reader (Molecular Devices, Sunnyvale, Calif.). For all reactions, cytochrome c was preincubated with cardiolipin in the presence or absence of SS peptides for 1 min. […] Ascorbate (50 μM) was added to initiate the reduction of cytochrome c, and the absorbance was recorded for 5 min. The rate of reduction was calculated based on slope of the change in absorbance intensity of 550 nm over 570 nm.

cytochrome c/CL complex = cytochrome c/CL complex (Equus caballus, UniProt P00004); assay: Peroxidase activity of cytochrome c/cardiolipin complex (Amplex Red); conditions: 2 μM cytochrome c; for peroxidation rate of cytochrome c: 10 μM peptide, cardiolipin 100 μg/ml
Text: The six coordination of the heme in cytochrome c prevents direct interaction of H2O2 with the catalytic metal site, and native cytochrome c in solution is a poor peroxidase. Upon interaction with CL, cytochrome c undergoes a structural change with rupture of the Fe-Met80 coordination. […] The mechanism of action of cytochrome c peroxidase is similar to that of other peroxidases, such as horse radish peroxidase (HRP). Thus it is possible to use the amplex red-HRP reaction to investigate cytochrome c peroxidase activity. In the presence of peroxidase, amplex red (AR) reacts with H2O2 to form the red-fluorescent oxidation product, resorufin (Ex/Em=571/585).
Cytochrome c (2 μM) was mixed with CL (25 μg/ml) and 10 μM H2O2 in 20 mM HEPES, pH 7.4. Amplex red (50 μM) was then added and fluorescence emission monitored in real time using Hitachi F4500 fluorescence spectrophotometer. Addition of amplex red elicited rapid increase in fluorescence signal due to resorufin formation, providing direct evidence for peroxidase activity of cytochrome c/CL complex (FIG. 19A).
Assessment of cytochrome c peroxidase activity was achieved using the Amplex® Red assay (Invitrogen/Life Technologies, Carlsbad, Calif.). Amplex® Red is a reagent that reacts with H2O2 in a 1:1 stoichiometry to produce highly fluorescent resorufin (λex/λem=570/585) in the presence of a peroxidase. In this assay, cytochrome c is added in place of horseradish peroxidase. 2 μM cytochrome c was incubated with cardiolipin or cardiolipin-POPC liposomes (10 μg/ml) for 1 min in 20 mM HEPES (pH 7.4) or deionized water prior to the addition of 50 μM Amplex® Red reagent and 10 μM H2O2, and the reaction was allowed to proceed for an additional 5 minutes. The continuous time course data were obtained using Hitachi F-4500 fluorescence spectrophotometer. When comparing the different SS peptide analogs (10 μM) in inhibiting peroxidase activity cytochrome c (2 μM) in the presence of cardiolipin (100 μg/ml), a microplate spectrofluorometer (Molecular Devices, Sunnyvale, Calif.) was used. Horseradish peroxidase (HRP) was used for comparison, and the HRP concentration (0.001 U/ml) was optimized to match the rate of Amplex® Red peroxidation by cardiolipin-cytochrome c complex.

[3] = biological target: cytochrome c and cardiolipin (Equus caballus, UniProt P00004); assay: Oxidation of ferrous cytochrome c by cardiolipin (A550); conditions: 20 μM cytochrome c reduced by 50 μM ascorbic acid; 100 μg/ml cardiolipin
Procedure: Cytochrome c (20 μM) was reduced by 50 μM ascorbic acid until all available functionally active cytochrome c was reduced. The reduction of cytochrome c was monitored by the appearance of a peak at 550 nm in its absorbance spectrum (Molecular Devices, Sunnyvale, Calif.). […] The rate of oxidation was calculated based on slope of the change in absorbance intensity of 550 nm over 570 nm.

Sequence of cytochrome c/cardiolipin complex (P00004 2-105 limits assumed, one chain of several): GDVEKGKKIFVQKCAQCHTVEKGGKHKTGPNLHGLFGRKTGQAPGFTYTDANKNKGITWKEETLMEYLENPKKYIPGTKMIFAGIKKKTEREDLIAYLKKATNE
Sequence of cytochrome c/CL complex (P00004 2-105 limits assumed, one chain of several): as above
Sequence of cardiolipin-cytochrome c complex (P00004 2-105 limits assumed, one chain of several): as above
Sequence of cytochrome c and cardiolipin (P00004 2-105 limits assumed): as the sequence (P00004 2-105 limits assumed, one chain of several) above

Row | Substance | protection against CL-induced disappearance of negative Cotton effect [1] | loss of the negative Cotton peak at 419 nm caused by cardiolipin [1] | rate of cytochrome c reduction in the presence of cardiolipin ([2]; 20 μM cytochrome c) | peroxidation rate of cytochrome c (cytochrome c/CL complex) | oxidation of cytochrome c by cardiolipin (loss of the 550 nm peak) [3] | inhibitory action of CL on cytochrome c reduction ([2]; 20 μM cytochrome c, 500 μM glutathione, CL 100 μg/ml, SS-31 20, 40 or 100 μM) | inhibitory effect of CL on kinetics of cytochrome c reduction ([2]; 500 μM GSH or 50 μM ascorbate) | rate of amplex red peroxidation / kinetics of cytochrome c peroxidase activity (cytochrome c/CL complex; CL 25 μg/ml, 10 μM H2O2, 50 μM amplex red)
1 | 2′,6′-Dmt-D-Arg-Ald-Lys-NH2 [SS-36] | Protect the Heme Environment of Cytochrome c from the Acyl Chain of CL | prevented | about 90% | about 20 % of control | inhibition of cytochrome c oxidation |  |  | 
2 | D-Arg-2′,6′-Dmt-Lys-Phe-NH2 [SS-31] | Protect the Heme Environment of Cytochrome c from the Acyl Chain of CL | prevented | 100% | ~35 % of control | prevented by the addition of SS-31 in a concentration-dependent manner | dose-dependently prevented the inhibitory action of CL | dose-dependently overcame the inhibitory effect of CL | decreased the rate of amplex red peroxidation; also recorded: dose-dependently reduced the kinetics of cytochrome c peroxidase activity
3 | 2′,6′-Dmt-D-Arg-Phe-(atn)Dap-NH2 [SS-19] | Protect the Heme Environment of Cytochrome c from the Acyl Chain of CL | prevented | about 50% | ~75 % of control | inhibition of cytochrome c oxidation |  |  | 

Source: patent US10808008B2, “Aromatic-cationic peptides and uses of same” (Cornell University, priority 2012, dated 2020)
